In one assay the test system is Galium aparine. As to the kind of experiment: Post-emergent field test on winter cereals, % control of weeds. As to conditions: for % Control GALAP: post-emergent.
The subject of another assay is Matricaria chamomilla. Described as above. The following applies: for % Control MATCH: post-emergent.
Another assay deals with Stellaria media. The description is as above. The following applies: for % Control STEME: post-emergent.
Another assay relates to Viola arvensis. The description is as above. The following applies: for % Control VIOLA: post-emergent.
Another assay deals with plants. Put plainly: Herbicidal activity of the phosphonate applied on its own. It counts as in vivo.
Setting [1] is: 15 g ai/ha, evaluation 30 days after application.
Setting [2] is: 24 g ai/ha, evaluation 15 days after application.
Where [3] appears, read: 48 g ai/ha, evaluation 15 days after application.
Where [4] appears, read: 48 g ai/ha, evaluation 30 days after application.
The mark [5] stands for this setting: 95 g ai/ha, evaluation 15 days after application.
Where [6] appears, read: 10 g ai/ha, evaluation 15 days after application.
Where [7] appears, read: Galium aparine, post-emergence, 360 h, read-out: % Control GALAP.
The mark [8] stands for this setting: Matricaria chamomilla, post-emergence, 360 h, read-out: % Control MATCH.
Where [9] appears, read: Stellaria media, post-emergence, 360 h, read-out: % Control STEME.
[10] abbreviates: Viola arvensis, post-emergence, 360 h, read-out: % Control VIOLA.
[11] abbreviates: Galium aparine, post-emergence, 720 h, read-out: % Control GALAP.
Setting [12] is: Matricaria chamomilla, post-emergence, 720 h, read-out: % Control MATCH.
Setting [13] is: Stellaria media, post-emergence, 720 h, read-out: % Control STEME.
Where [14] appears, read: Viola arvensis, post-emergence, 720 h, read-out: % Control VIOLA.

The values below come from patent publication EP0684766B1, “HERBICIDAL COMPOSITIONS” (Hoechst Schering AgrEvo GmbH, priority 1993, dated 1994).

Experimental for Galium aparine: (§1) The Examples are field tests carried out post-emergently in the Autumn on winter cereals. The compositions are evenly applied to the plants as suspensions using a water amount of 500 litres per hectare. […] The evaluation of the individual components (a) and (b) as well as their mixtures was carried out on a scale where 0 is no damage and 100 is complete destruction of the plants.
Experimental for Matricaria chamomilla: as §1
Experimental for Stellaria media: as §1
Experimental for Viola arvensis: as §1

Consider `COC(=O)c1ccccc1S(=O)(=O)NC(=O)N(C)c1nc(C)nc(OC)n1`, for which, in the assay with Galium aparine (setting [1]), the “% Control GALAP” value is on record as 47%. In addition, in the assay with Matricaria chamomilla (setting [1]), the “% Control MATCH” value turned out to be 88%. In addition, the “% Control STEME” value in the assay on Stellaria media (setting [1]) was found to be 78%. Besides, the “% Control VIOLA” value with Viola arvensis (setting [1]) is 40%.
With `CCCCC(CC)COP(=O)(CC(CC)CCCC)OCC(CC)CCCC` (stereo not shown) [(a), O,O-bis(2-ethylhexyl)(2-ethylhexyl)phosphonate], the “% Control GALAP” value in the assay with Galium aparine (setting [2]), in the assay with Galium aparine (setting [3]), in the assay with Galium aparine (setting [4]) and in the assay on Galium aparine (setting [5]) was 0% throughout. Besides, the “% Control MATCH” value with Matricaria chamomilla (setting [2]), in the assay with Matricaria chamomilla (setting [3]), in the assay on Matricaria chamomilla (setting [4]) and with Matricaria chamomilla (setting [5]) was 0% throughout. The “% Control STEME” value in the assay on Stellaria media (setting [2]), in the assay with Stellaria media (setting [3]), in the assay on Stellaria media (setting [4]) and with Stellaria media (setting [5]) was 0% each time. For the same compound, in the assay on plants, the herbicidal activity entry is listed as “no herbicidal activity”. In addition, the “% Control VIOLA” value in the assay on Viola arvensis (setting [3]), in the assay with Viola arvensis (setting [4]) and in the assay with Viola arvensis (setting [5]) was 0% throughout.
For the compound `C#CCN1C(=O)COc2cc(F)c(N=c3snc4n3CC(C)(C)C4)cc21` [(b1), 6-(6,7-dihydro-6,6-dimethyl-3H,5H-pyrrolo[2,1-c][1,2,4]thiadiazol-3-ylidenimino)-7-fluoro-4-(2-propynyl)-2H-1,4-benzoxazin-3(4H)-one], the “% Control GALAP” value with Galium aparine (setting [6]) stood at 47%. Further, the “% Control MATCH” value with Matricaria chamomilla (setting [6]) stood at 50%. Besides, in the assay with Stellaria media (setting [6]), the “% Control STEME” value is on record as 70%.
Turning to `C#CCN1C(=O)COc2cc(F)c(N3C(=O)C4CCCCN4C3=O)cc21` (stereo not shown) [(b2), 2-[7-fluoro-3-oxo-4-(2-propynyl)-3,4-dihydro-2H-1,4-benzoxazin-6-yl]perhydroimidazo[1,5-a]pyridine-1,3-dione], the pest or weed control at 15 g/ha in the assay with Galium aparine (setting [7]) amounted to 35%; in the assay with Matricaria chamomilla (setting [8]) it was 90%; with Stellaria media (setting [9]), 27%; with Viola arvensis (setting [10]), 37%.
On to `CCc1nc2c(Cl)cc(F)c(N3C(=O)C4=C(CCCC4)C3=O)c2s1` [(b3), N-(4-chloro-2-ethyl-6-fluorobenzothiazol-7-yl)-1-cyclohexene-1,2-dicarboximide], for which the pest or weed control at 15 g/ha in the assay on Galium aparine (setting [7]) turned out to be 33%; with Matricaria chamomilla (setting [8]), 99%; in the assay on Stellaria media (setting [9]), 20%; with Viola arvensis (setting [10]), 83%.
Turning to `COc1cc(OC)nc(NC(=O)NS(=O)(=O)N(C)S(C)(=O)=O)n1` [(b4), 3-[4,6-dimethoxypyrimidin-2-yl)-1-(N-methyl-N-methylsulfonyl-aminosulfonyl)urea], the pest or weed control at 12 g/ha in the assay with Galium aparine (setting [11]) is 42%; with Matricaria chamomilla (setting [12]) it was 55%; in the assay with Stellaria media (setting [13]), 40%; in the assay with Viola arvensis (setting [14]), 20%.
As to `CC(C)c1ccc(NC(=O)N(C)C)cc1` [(b6), isoproturon], the pest or weed control at 750 g/ha came to 13% with Galium aparine (setting [11]), 83% in the assay on Matricaria chamomilla (setting [12]), 55% in the assay with Stellaria media (setting [13]) and 30% with Viola arvensis (setting [14]).
With `Cc1ccc(NC(=O)N(C)C)cc1Cl` [(b7), chlorotoluron], the pest or weed control at 750 g/ha came to 15% with Galium aparine (setting [11]), 88% in the assay with Matricaria chamomilla (setting [12]), 85% with Stellaria media (setting [13]) and 23% in the assay on Viola arvensis (setting [14]).
`CCOC(=O)Cn1c(=O)sc2cccc(Cl)c21` [(b8), benazolin-ethyl]: the pest or weed control at 200 g/ha with Galium aparine (setting [11]) is 18%; with Stellaria media (setting [13]), 88%; with Viola arvensis (setting [14]), 22%.
For the compound `O=C(O)CNCP(=O)(O)O` [(b9), glyphosate], the pest or weed control at 50 g/ha worked out at 20% with Galium aparine (setting [11]), 28% in the assay on Matricaria chamomilla (setting [12]), 25% with Stellaria media (setting [13]) and 10% in the assay with Viola arvensis (setting [14]).
As to `COC(=O)c1cc(Oc2ccc(Cl)cc2Cl)ccc1[N+](=O)[O-]` [bifenox], the pest or weed control at 500 g/ha in the assay with Galium aparine (setting [7]) came out at 78%; in the assay with Matricaria chamomilla (setting [8]), 63%; in the assay with Stellaria media (setting [9]), 15%; in the assay with Viola arvensis (setting [10]), 95%.
Regarding `COc1nc(C)nc(=NC(=O)NS(=O)(=O)c2ccccc2C(=O)O)[nH]1` [metsulfuron], the pest or weed control at 3 g/ha in the assay on Galium aparine (setting [11]) was 10%; with Matricaria chamomilla (setting [12]), 97%; with Stellaria media (setting [13]), 96%; in the assay on Viola arvensis (setting [14]), 50%.
